The test addresses T1, DmCE1B_ct (Dysgonomonas mossii, UniProt F8X1N1).
T1 construct: gene HMPREF9456_02279; dimer; IMAC purified from E. coli BL21(DE3)
The test is described as follows: X-ray crystal structure of soaked crystal, […] Å. The note with it: crystal soak with saturating MFA, 0.1 M Tris pH 8, 25% w/v PEG 6000; one MFA at edge of active site groove, one at dimer interface. It counts as binding.

Structures are written as SMILES.

T1 sequence (F8X1N1 294-656): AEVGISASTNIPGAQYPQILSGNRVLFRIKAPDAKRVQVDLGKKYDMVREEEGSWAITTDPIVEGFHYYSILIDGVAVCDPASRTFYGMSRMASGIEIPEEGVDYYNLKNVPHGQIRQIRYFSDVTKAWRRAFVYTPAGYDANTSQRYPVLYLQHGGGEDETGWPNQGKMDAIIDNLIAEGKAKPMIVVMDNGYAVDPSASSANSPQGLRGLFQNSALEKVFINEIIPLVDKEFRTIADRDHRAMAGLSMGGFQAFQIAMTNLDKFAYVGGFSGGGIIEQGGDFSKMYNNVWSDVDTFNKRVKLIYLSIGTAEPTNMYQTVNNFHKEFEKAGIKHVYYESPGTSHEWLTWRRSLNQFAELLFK

On to `COC(=O)/C=C/c1ccc(O)c(OC)c1` [MFA], for which the “X-ray crystal structure of soaked crystal, 1.41 Å” value is “Two MFA molecules were observed and modeled (Fig. S15A)”.
